# Reference: a melting point compilation (Tetko et al.; mined from patent text by program, amines drawn as free bases though some values may be those of a salt)
row,Compound,melting point [°C]
1,COc1cc(C(C)C)c2c(c1)S(=O)(=O)N(COC(=O)C1CCC(=O)N1)C2=O (configuration not stated),159 to 160
2,O=C(O)C1CC(=O)N(c2ccccc2)C1c1cccnc1 (configuration not stated),229 to 232
3,O=C(Nc1cccc2c1C(=O)c1c-2n[nH]c1-c1ccc(C(=O)NN2CCCC2)s1)NN1CCOCC1,213 to 215
4,CC(C)(C)c1ccc(S(=O)(=O)C[N+](=O)[O-])cc1,90 to 91
5,COc1ccc(CC(=O)Nc2c(C)c(C)c3c(c2C)C(c2ccc(C(C)C)cc2)C(C)(C)O3)cc1 (configuration not stated),171 to 173
6,CCOC(=O)[C@H](CC(C)C)NC(=O)C[C@@H]1CN(CC(C)(C)CO)c2ccc(Cl)cc2[C@@H](c2cccc(OC)c2OC)O1,148 to 149
7,CSc1ncc2cc(Cc3ccccc3F)c(=O)n(C)c2n1,156 to 159
8,COC(=O)CCCc1c(-c2ccc(F)cc2)[nH]c2ccc(-c3ccc(O)cc3)cc12,141 to 143
9,CCCCc1nnc(-c2ccc(N)cc2)o1,125
10,Clc1cc2snnc2s1,78 to 79
11,COc1cc(OC)cc(-c2nc[nH]c2-c2ccc(OC(F)(F)F)c(N)c2)c1,182 to 184
12,O=C1c2ccccc2C(=O)N1C1CCN(CCCc2c[nH]c3ccccc23)CC1,187 to 190
13,Cc1ccccc1NC(=O)CN1CC2CCC(C1)N2S(=O)(=O)c1ccccc1Cl,170 to 171
14,COc1cc(C(=O)C(Br)CCC2CCCCC2)c(OC)cc1Cl (configuration not stated),73 to 74
15,Cc1cccc2nc(C)n(C3CCC(=O)NC3=O)c(=O)c12 (configuration not stated),292 to 294
16,CC(=O)c1ccc(Nc2c3ccccc3nc3occc23)cc1,220 to 221
17,Cc1c([N+](=O)[O-])ccc(Cl)c1C#N,87.5 to 89.5
18,N#Cc1ncn2c(C(F)(F)F)cc(-c3ccc(Cl)cc3)nc12,205
19,CN1CCCN(Cc2nc(-c3ccc4c(c3)Nc3ccccc3S4)cs2)CC1,135 to 137
20,CC12CC3OC3CC1CCC1C2CCC2(C)C(O)C(N3CCC(O)CC3)CC12 (configuration not stated),204 to 206
21,CCCc1[nH]c(C(=O)OCC)c(C)c1CCC(=O)OCC,61.5 to 63.5
22,CCCCCCCCCCCCCCC(O)(CCCCC(=O)O)CCCCC(=O)O,79 to 80
23,O=C(O)c1cn(C2CC2)c2c(F)c(N3CC(n4ccnn4)C3)c(F)cc2c1=O,315 to 316
24,COc1ccc(N2CCN(c3ccc(OC)nc3-c3ccc(N(C)C)cc3)CC2)cc1,163 to 165
25,CCOC(=O)c1c(C(F)(F)F)nc(-c2cccs2)c(-c2ccccc2)c1O,136
26,COC(=O)C1(CCCCl)Sc2cc(OC)ccc2OCC1=O (configuration not stated),64 to 65

row,Compound,melting point [°C]
1,COC(=O)c1ccc(-c2nc(-c3ccc(C(F)(F)F)cc3)cs2)cc1,156 to 158
2,CC(=O)OC1CSC(Oc2cccc(-c3ccc(F)nc3)c2)C(OC(C)=O)C1OC(C)=O (configuration not stated),115
3,OC1(Cn2cncn2)CCCC1Cc1ccc(-c2ccccc2)cc1 (configuration not stated),145 to 148
4,Oc1ccc2c(-c3ccco3)nn(Cc3ccccc3F)c2n1,250
5,OC(CNC(=S)NCc1ccc(Cl)cc1)(Cn1cncn1)c1ccc(Cl)cc1Cl (configuration not stated),209 to 210
6,CCOC(=O)NCCCCCCNC(=O)OCC,80 to 82
7,N#CC(C#N)=C(O)c1ccc(Oc2ccccc2)cc1,160 to 162
8,CC(C)(NC(=O)C(CS)Cc1ccccc1)C(=O)O (configuration not stated),175 to 176
9,CCN1OCC(=O)N(c2cc(Cl)ccc2C)C1=S,119 to 121
10,N=C(N)c1ccc(N2CC(CN3CCCC(C(=O)O)C3)OC2=O)cc1 (configuration not stated),198
11,CC1(C)NS(=O)(=O)c2cc([N+](=O)[O-])ccc21,187
12,O=C(N[C@H](Cc1ccc(C(F)(F)F)cc1)[C@@H](O)c1ccc(F)cc1)c1ccc(Oc2ccccc2)cc1 (racemic),186 to 187
13,c1cncc(-c2cc3ccccc3[nH]2)c1,176 to 177
14,CNC1C=CC(C(C)C)C2CNCC12 (configuration not stated),76 to 81
15,CCc1csc(NC(=O)Nc2ccc(N3CCN(C(=O)Nc4ccc(OCCO)cc4C(F)(F)F)CC3)cc2)n1,124 to 125
16,N#CC1=C(c2ccccc2)Nc2ccccc2S1(=O)=O,286 to 289
17,Cc1ccc(CSc2c(O)cc(-c3ccccc3)oc2=O)cc1,164 to 165
18,O=C(NC1Cc2ccc(-c3ccc(F)cc3)cc2C1)c1ccc(F)cc1 (configuration not stated),193
19,CC1NC(=O)NN=C1c1ccc(N2CCCC2=O)cc1 (configuration not stated),278 to 280
20,CNC(=C[N+](=O)[O-])NCCCCOc1cccc(CCN(C)C)c1,59 to 63
21,CCOC(=O)c1cc(Cl)n2nc(-c3ccccc3)cc2n1,135 to 137
22,Clc1ccc2c(Cl)c3c(nc2c1)CCCC3,85 to 87
23,CC(C)(C)OC(=O)COc1ccc([N+](=O)[O-])cc1F,62 to 64
24,Cc1cc2ncn(Cc3ccc([N+](=O)[O-])cc3)c2cc1C,175 to 177
25,CC1=C(N2CC2)C(=O)c2c([nH]c(CO)c2C)C1=O,224 to 225
26,Cc1ccc(NC(=O)C(C)(C)C)c(-c2cncc(Br)n2)c1,74 to 76

row,Compound,melting point [°C]
1,COC(=O)c1ccc(-c2cc(-c3ccc4c(c3)C(C)(C)CCC4(C)C)[nH]n2)cc1,155 to 156
2,O=C(OCC12CCCN(CCC1)C2)c1c[nH]c2ccccc12,207 to 209
3,CC(C)(C)NC(=O)c1nn(-c2ccc(F)cc2)c2c1C1CCC2CC1,190 to 193
4,CCN(CC)CCN(CCN1CCCCC1)c1ccc(-c2nc3ccccc3[nH]2)cc1,190 to 191
5,CS(=O)c1ccc(CSc2nnc(-c3ccc4ncsc4c3)o2)cc1C(F)(F)F (configuration not stated),179 to 180
6,OCc1ccc(-c2ccc(O)cc2)c(-c2ccc(O)cc2)c1,214
7,CC[C@@H](Cc1ccc(OC)c(C(=O)NCc2ccccc2Oc2ccc(F)cc2)c1)C(=O)O,95 to 96
8,C[Si](C)(C)CCC1=C(O)C(=O)c2ccccc2C1=O,98 to 100
9,COc1ccc(N)c(C2OCCO2)c1OC,78 to 80
10,CC(=O)c1c(-c2ccccc2)oc(-c2ccncc2)c1C,108 to 110
11,O=C1CCCCCCCCCCC(=O)O1,85 to 89
12,COCC1CN(c2ccc(C3CCC(O)CC3)cn2)C(=O)O1 (racemic),142 to 143
13,Cc1cc(Br)c2nc(OCC(F)(F)F)ccc2c1,61 to 62
14,Cc1nc2ncnn2c(Cl)c1C1CCCC1,87
15,O=C(Nc1cccc(S(=O)(=O)N2CCOCC2)c1)c1cnn2c(C(F)F)cc(-c3ccc(Cl)cc3)nc12,253
16,CCCCCC(CC(=O)NO)C(=O)NC(C(=O)N1CCCC1CO)C(C)C (configuration not stated),148 to 149
17,Nc1ccc(C2CCNC2)c(F)c1 (configuration not stated),108 to 109
18,O=C1C=C(OCc2ccccc2)CN1,147 to 148
19,CC(=O)OCc1ccc(-c2nc3c(s2)C(=O)c2ccccc2C3=O)o1,204
20,N#CSc1c(C2CC2)[nH]c(Cl)c1C#N,123
21,Cc1oc(-c2ccccc2)nc1COc1ccc(CON=C(CCCCCC(=O)O)c2ccccc2)cc1,84 to 85
22,c1ccc(-c2nc3ccccc3s2)nc1,133 to 134
23,Cc1ccc(C(=O)C2CCN(CCc3c[nH]c4ccccc34)CC2)cc1C,172 to 173
24,O=C(NO)c1ccc2c(c1)CCN(C(=O)NCCc1c[nH]c3ccccc13)C2,173 to 176
25,COc1ccc(C(=O)NC(CC(C)C)C(=O)O)c(SSc2cc(OC)ccc2C(=O)NC(CC(C)C)C(=O)O)c1 (configuration not stated),230 to 231
26,C=Cc1ccc(CSc2ccccc2C(=O)O)cc1,207 to 209

row,Compound,melting point [°C]
1,CC1CN(c2n[nH]c(-c3ccc(Cl)cc3)c2-c2ccncc2)CC(C)N1 (configuration not stated),236 to 238
2,Nc1ccc(C(=O)OCCOC(=O)CC[C@@H](C(=O)O)n2c3ccccc3c3ccccc32)cc1,65
3,O=C(Nc1nc(-c2ccco2)c(C(=O)c2ccncn2)s1)c1ccncc1,> 300
4,CC1(C)[C@H](Cc2noc(C3CCCCC3)n2)CC[C@]1(C)NCC(=O)N1C[C@@H](F)C[C@H]1C#N,152 to 153
5,CSc1ccc(C(CC2CCCC2)C(=O)O)cc1C(F)(F)F (configuration not stated),105 to 106
6,Cc1c(Br)c2c(c(C)c1NC=O)C(c1ccc(C(C)C)cc1)CO2 (configuration not stated),151 to 152
7,ON=C1CCC(O)(c2ccccc2Cc2ccccc2)CC1 (configuration not stated),137 to 138
8,CC12CC3(C)CC(CO)(C1)CC(CO)(C2)C3,158 to 161
9,CC(C)C(c1cncnc1C(F)(F)F)N(C)C(=O)Cc1ccccn1 (configuration not stated),99 to 100
10,N#Cc1cc(O)cc(F)c1,138 to 139
11,CC(CCCO[Si](C)(C)C(C)(C)C)C1CCC2C3CC=C4C(C)(C)C(O[Si](C)(C)C(C)(C)C)CCC4(C)C3CCC12C (configuration not stated),161 to 162
12,O=C(O)C1Cc2c([nH]c3ccccc23)C(CO)N1 (configuration not stated),231 to 233
13,CCCN(CCc1ccccc1)CCc1cccc2[nH]c(=O)[nH]c12,176 to 177
14,Cc1cc2c(cc1C)SC(C(F)(F)F)C(C(=O)O)=C2 (configuration not stated),235 to 237
15,Nc1ncc(CN2CC=C(c3ccc(F)cc3)CC2)c(N)n1,265
16,CON1C(C)(C)CC(OC(=O)c2ccc3nn(-c4cc(C(C)(C)CC(C)(C)C)cc(C(C)(C)c5ccccc5)c4O)nc3c2)CC1(C)C,84 to 90
17,Cc1ccnc(SCc2nccc(SCCCSc3ccc4ncc([N+](=O)[O-])n4n3)c2C)n1,136 to 138
18,COc1ccc(C(=O)c2c(C)n(C(C)=O)c(=O)n2C(C)=O)cc1,123 to 125
19,COC(=O)c1c([N+](=O)[O-])cccc1S(=O)(=O)NC(C)(C)C,89 to 91
20,CCCCCOc1cc2c(cc1/C=C/c1ccc(C(=O)O)cc1)C(C)(C)CCC2(C)C,148 to 149
21,Cc1cc2cc(NC(=O)NC34CC5CC(CC(C5)C3)C4)ccc2[nH]1,146 to 152
22,N[C@H]1Cc2ccccc2[C@@H]1O,104 to 106
23,O=C1NC(Cc2ccncc2)(Cc2ccncc2)C(=O)N1C12CC3CC(CC(C3)C1)C2,284 to 286
24,CC(C)c1cc(C(C)(C)CCP(=O)(O)O)cc(C(C)C)c1O,179 to 182
